Measurements: patent publication US20210214375A1 (LUNDBECK LA JOLLA RESEARCH CENTER, INC., priority 2017, published 2021)

Assays:
ABHD6 = target: T1, ABHD6 (Mus musculus, UniProt Q8R2Y0); experiment: In vitro competitive activity-based protein profiling, mouse brain proteome, ABHD6; assay type: biochemical; settings: mouse
T1 construct: Brain; from tissue; host or cells: mouse brain proteome
T1 sequence (Q8R2Y0 1-336): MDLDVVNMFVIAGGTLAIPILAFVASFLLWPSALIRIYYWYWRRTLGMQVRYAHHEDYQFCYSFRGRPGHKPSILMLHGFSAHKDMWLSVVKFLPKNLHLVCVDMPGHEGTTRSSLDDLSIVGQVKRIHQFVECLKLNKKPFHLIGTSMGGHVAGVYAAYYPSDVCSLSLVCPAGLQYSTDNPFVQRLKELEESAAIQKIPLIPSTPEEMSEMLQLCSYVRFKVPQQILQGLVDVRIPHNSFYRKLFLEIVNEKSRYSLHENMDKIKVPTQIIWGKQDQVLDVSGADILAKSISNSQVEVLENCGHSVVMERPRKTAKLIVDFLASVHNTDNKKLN
Procedure: [Worded in the source for another target; this target is reported under the same test.] (§1) Proteomes (human prefrontal cortex or cell membrane fractions) (50 μL, 1.0 mg/mL total protein concentration) were preincubated with varying concentrations of inhibitors at 37° C. After 30 min, FP—Rh or HT-01 (1.0 μL, 50 μM in DMSO) was added and the mixture was incubated for another 30 min at room temperature. Reactions were quenched with SDS loading buffer (15 μL-4×) and run on SDS-PAGE.

MAGL = target: T2, MAGL (Mus musculus, UniProt O35678); experiment: Mouse brain proteomes from inhibitor treated mice (oral gavage, brain proteomes analyzed 4 h after administration); assay type: in vivo, mouse (C57Bl/6J); settings: brain proteome 4 h after administration, read-out: % Inh 5 mg/kg MGLL (Mouse)
T2 construct: from tissue; host or cells: brain of wild-type C57Bl/6J mice
T2 sequence (O35678 1-303): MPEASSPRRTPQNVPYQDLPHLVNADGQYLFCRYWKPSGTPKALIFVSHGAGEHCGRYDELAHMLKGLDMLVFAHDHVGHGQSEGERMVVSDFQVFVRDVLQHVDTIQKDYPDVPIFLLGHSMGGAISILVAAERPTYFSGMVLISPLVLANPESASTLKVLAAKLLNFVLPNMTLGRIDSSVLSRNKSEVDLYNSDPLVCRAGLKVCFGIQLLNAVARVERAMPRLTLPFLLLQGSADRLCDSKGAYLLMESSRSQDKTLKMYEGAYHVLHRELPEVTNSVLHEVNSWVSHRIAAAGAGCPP
Procedure, shortened: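 Wild-type C57Bl/6J mice dosed orally in polyethylene glycol vehicle; brains removed 4 h post-dose and brain proteomes prepared and analysed for MAGL and serine hydrolase activity by previously established methods.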

MGLL = target: T3, MGLL (Mus musculus, UniProt O35678); experiment: In vitro competitive activity-based protein profiling, mouse brain proteome; assay type: biochemical
T3 construct: Brain; from tissue; host or cells: mouse brain proteome
T3 sequence (O35678 1-303): T2 sequence (O35678 1-303)
Procedure: [Worded in the source for another species; this species is reported under the same test.] as §1

| Compound | IC50 (ABHD6) | inhibition at 5 mg/kg (MAGL) | IC50 (MGLL) |
| --- | --- | --- | --- |
| O=C(OC(C(F)(F)F)C(F)(F)F)N1CCC2(CCN(Cc3cccc(Cl)c3N3CCCC3)CC2)C1 [Example 171, 1,1,1,3,3,3-Hexafluoropropan-2-yl 8-(3-chloro-2-(pyrrolidin-1-yl)benzyl)-2,8-diazaspiro[4.5]decane-2-carboxylate] | > 1000 nM | ≥ 75% | < 100 nM |
| CS(=O)(=O)N1CC2(CCN(c3cc(C(F)(F)F)ccc3CN3CCN(C(=O)OC(C(F)(F)F)C(F)(F)F)CC3)CC2)C1 [Example 211, 1,1,1,3,3,3-Hexafluoropropan-2-yl 4-(2-(2-(methylsulfonyl)-2,7-diazaspiro[3.5]nonan-7-yl)-4-(trifluoromethyl)benzyl)piperazine-1-carboxylate] | > 1000 nM | ≥ 75% | < 100 nM |
| CS(=O)(=O)N1CCC2(CCN(c3ccccc3CN3CCN(C(=O)OC(C(F)(F)F)C(F)(F)F)CC3)C2)C1 (stereo not drawn) [Example 165, 1,1,1,3,3,3-Hexafluoropropan-2-yl 4-(2-(7-(methylsulfonyl)-2,7-diazaspiro[4.4]nonan-2-yl)benzyl)piperazine-1-carboxylate] | > 1000 nM | ≥ 75% | < 100 nM |
| CC(=O)N1CCC2(CC1)CCN(c1cc(C(F)(F)F)ccc1CN1CCN(C(=O)OC(C(F)(F)F)C(F)(F)F)CC1)C2 [Example 197, 1,1,1,3,3,3-Hexafluoropropan-2-yl 4-(2-(8-acetyl-2,8-diazaspiro[4.5]decan-2-yl)-4-(trifluoromethyl)benzyl)piperazine-1-carboxylate] | > 1000 nM | ≤ 25% | < 100 nM |
| CN1CCC2(CCN(c3cc(Cl)ccc3CN3CCN(C(=O)OC(C(F)(F)F)C(F)(F)F)CC3)CC2)C1 [Example 177, 1,1,1,3,3,3-Hexafluoropropan-2-yl 4-(4-chloro-2-(2-methyl-2,8-diazaspiro[4.5]decan-8-yl)benzyl)piperazine-1-carboxylate] | > 1000 nM | 25 to 75% | < 100 nM |
| CC(=O)N1CCN(c2cccc(C(F)(F)F)c2CN2CC3(CCN(C(=O)OC(C(F)(F)F)C(F)(F)F)CC3)C2)CC1 [Example 59, 1,1,1,3,3,3-Hexafluoropropan-2-yl 2-(2-(4-acetylpiperazin-1-yl)-6-(trifluoromethyl)benzyl)-2,7-diazaspiro[3.5]nonane-7-carboxylate] | 100 to 1000 nM | ≥ 75% | < 100 nM |
| O=C(OC(C(F)(F)F)C(F)(F)F)N1CCC2(CCN(Cc3ccc(C(F)(F)F)cc3N3CC4CCC(C3)O4)CC2)C1 [Example 190, 1,1,1,3,3,3-Hexafluoropropan-2-yl 8-(2-(8-oxa-3-azabicyclo[3.2.1]octan-3-yl)-4-(trifluoromethyl)benzyl)-2,8-diazaspiro[4.5]decane-2-carboxylate] | > 1000 nM | ≥ 75% | < 100 nM |
| CCN1CCN(c2cccc(C(F)(F)F)c2CN2CC3(CCN(C(=O)OC(C(F)(F)F)C(F)(F)F)CC3)C2)CC1 [Example 54, 1,1,1,3,3,3-Hexafluoropropan-2-yl 2-(2-(4-ethylpiperazin-1-yl)-6-(trifluoromethyl)benzyl)-2,7-diazaspiro[3.5]nonane-7-carboxylate] | > 1000 nM | ≤ 25% | < 100 nM |
| CCN1CC2(CCN(c3cc(C(F)(F)F)ccc3CN3CCN(C(=O)OC(C(F)(F)F)C(F)(F)F)CC3)C2)C1 [Example 184, 1,1,1,3,3,3-Hexafluoropropan-2-yl 4-(2-(2-ethyl-2,6-diazaspiro[3.4]octan-6-yl)-4-(trifluoromethyl)benzyl)piperazine-1-carboxylate] | > 1000 nM | ≤ 25% | < 100 nM |
| O=C(OC(C(F)(F)F)C(F)(F)F)N1CCC2(CC1)CN(Cc1ccc(C(F)(F)F)cc1)C2 [Example 69, 1,1,1,3,3,3-Hexafluoropropan-2-yl 2-(4-(trifluoromethyl)benzyl)-2,7-diazaspiro[3.5]nonane-7-carboxylate] | < 100 nM | ≥ 75% | < 100 nM |
| CS(=O)(=O)N1CCC2(CCN(c3cccc(C(F)(F)F)c3CN3CC4(CCN(C(=O)OC(C(F)(F)F)C(F)(F)F)CC4)C3)CC2)C1 [Example 62, 1,1,1,3,3,3-Hexafluoropropan-2-yl 2-(2-(2-(methylsulfonyl)-2,8-diazaspiro[4.5]decan-8-yl)-6-(trifluoromethyl)benzyl)-2,7-diazaspiro[3.5]nonane-7-carboxylate] | > 1000 nM | 25 to 75% | < 100 nM |
| O=C(OC(C(F)(F)F)C(F)(F)F)N1CCC2(CC1)CN(Cc1c(N3CCC4(CCOCC4)C3)cccc1C(F)(F)F)C2 [Example 52, 1,1,1,3,3,3-Hexafluoropropan-2-yl 2-(2-(8-oxa-2-azaspiro[4.5]decan-2-yl)-6-(trifluoromethyl)benzyl)-2,7-diazaspiro[3.5]nonane-7-carboxylate] | 100 to 1000 nM | ≥ 75% | < 100 nM |
| CN1CCC2(CCN(c3cc(C(F)(F)F)ccc3CN3CCN(C(=O)OC(C(F)(F)F)C(F)(F)F)CC3)CC2)C1 [Example 182, 1,1,1,3,3,3-Hexafluoropropan-2-yl 4-(2-(2-methyl-2,8-diazaspiro[4.5]decan-8-yl)-4-(trifluoromethyl)benzyl)piperazine-1-carboxylate] | > 1000 nM | ≤ 25% | < 100 nM |
| O=C(OC(C(F)(F)F)C(F)(F)F)N1CCC2(CC1)CN(Cc1c(N3CCCCC3)cccc1C(F)(F)F)C2 [Example 41, 1,1,1,3,3,3-Hexafluoropropan-2-yl 2-(2-(piperidin-1-yl)-6-(trifluoromethyl)benzyl)-2,7-diazaspiro[3.5]nonane-7-carboxylate] | > 1000 nM | ≥ 75% | < 100 nM |
| O=C(OC(C(F)(F)F)C(F)(F)F)N1CCC2(CC1)CN(Cc1c(N3CCN(C4CC4)CC3)cccc1C(F)(F)F)C2 [Example 60, 1,1,1,3,3,3-Hexafluoropropan-2-yl 2-(2-(4-cyclopropylpiperazin-1-yl)-6-(trifluoromethyl)benzyl)-2,7-diazaspiro[3.5]nonane-7-carboxylate] | > 1000 nM | ≥ 75% | < 100 nM |
| CS(=O)(=O)N1CCC2(CCN(c3cc(C(F)(F)F)ccc3CN3CCN(C(=O)OC(C(F)(F)F)C(F)(F)F)CC3)C2)CC1 [Example 196, 1,1,1,3,3,3-Hexafluoropropan-2-yl 4-(2-(8-(methylsulfonyl)-2,8-diazaspiro[4.5]decan-2-yl)-4-(trifluoromethyl)benzyl)piperazine-1-carboxylate] | > 1000 nM | ≤ 25% | < 100 nM |
| O=C(OC(C(F)(F)F)C(F)(F)F)N1CCC2(CCN(Cc3ccc(C(F)(F)F)cc3N3CCC(F)CC3)CC2)C1 [Example 192, 1,1,1,3,3,3-Hexafluoropropan-2-yl 8-(2-(4-fluoropiperidin-1-yl)-4-(trifluoromethyl)benzyl)-2,8-diazaspiro[4.5]decane-2-carboxylate] | > 1000 nM | 25 to 75% | < 100 nM |
| O=C(OC(C(F)(F)F)C(F)(F)F)N1CCC2(CC1)CN(Cc1c(N3CCC(F)CC3)cccc1C(F)(F)F)C2 [Example 51, 1,1,1,3,3,3-Hexafluoropropan-2-yl 2-(2-(4-fluoropiperidin-1-yl)-6-(trifluoromethyl)benzyl)-2,7-diazaspiro[3.5]nonane-7-carboxylate] | > 1000 nM | ≥ 75% | < 100 nM |
| CC(=O)N1CC2(CCN(c3cc(Cl)ccc3CN3CCN(C(=O)OC(C(F)(F)F)C(F)(F)F)CC3)CC2)C1 [Example 213, 1,1,1,3,3,3-Hexafluoropropan-2-yl 4-(2-(2-acetyl-2,7-diazaspiro[3.5]nonan-7-yl)-4-chlorobenzyl) piperazine-1-carboxylate] | > 1000 nM | ≥ 75% | < 100 nM |
| CS(=O)(=O)N1CCC2(CCN(c3cc(Cl)ccc3CN3CCN(C(=O)OC(C(F)(F)F)C(F)(F)F)CC3)C2)CC1 [Example 30, 1,1,1,3,3,3-Hexafluoropropan-2-yl 4-(4-chloro-2-(8-(methylsulfonyl)-2,8-diazaspiro[4.5]decan-2-yl)benzyl)piperazine-1-carboxylate] | > 1000 nM | ≤ 25% | < 100 nM |
| CC(=O)N1CC2(CCN(c3cc(Cl)ccc3CN3CCN(C(=O)OC(C(F)(F)F)C(F)(F)F)CC3)C2)C1 [Example 176, 1,1,1,3,3,3-Hexafluoropropan-2-yl 4-(2-(2-acetyl-2,6-diazaspiro[3.4]octan-6-yl)-4-chlorobenzyl) piperazine-1-carboxylate] | > 1000 nM | ≥ 75% | < 100 nM |
